According to US6413937B1, “Combinations for use in increasing the potency of a substrate for multidrug resistance related protein” (Dublin City University and Enterprise Ireland, priority 1996, dated 2002):
Blank lines part the entries; values can stand above or below the compound they belong to.

Columns and labels:
DLKP cell line = experiment: miniaturised in vitro colorimetric cell survival assay (acid phosphatase end-point), DLKP; assay type: cell-based, human
Protocol: (§1) All the results presented in this Example for the DLKP, A549 and OAW42-SR cell lines were derived using the same miniaturised in vitro calorimetric assay system. On Day 1 of the assay 1000 cells/well/100 μl were plated into 96-well plates. Cells were allowed to attach overnight and cell viability was visually assessed. […] NSAID plus chemotherapeutic drug) to be analysed were added onto the cells. The individual drugs were added separately in 50 μl quantities (4× stocks, to take into account the dilution effect of having 200 μl final volume in each well). The drugs were left on the cells for five further days (Day 7) and cell number was determined using the acid phosphatase end-point assay which uses p-nitrophenol phosphate as substrate (Martin, A. and Clynes, M. (1991) In Vitro Dev. Biol., 27A, 183-184). On Day 7 the culture medium was removed from the cells and they were washed once with phosphate buffered saline (PBS). […] After the incubation period 50 μl of 1N NaOH was added to each well to develop the colour. The plates were then read at 405 nm (reference 620 nm) on an ELISA plate-reader. […] All results are the cell survival means ±S.D. from a minimum of three experiments.

A549 cell line = experiment: miniaturised in vitro colorimetric cell survival assay (acid phosphatase end-point), A549; assay type: cell-based, human
Protocol: as §1

[1] = tested on: GST prepared from DLKP cells; experiment: total GST assay with 1-chloro-2,4-dinitrobenzene; assay type: biochemical, human
Protocol: The other NSAIDs were tested in a total GST assay (Habig, W. H., and Jakoby, W. B., (1981); Methods Enzymol., 77: 218-231). Total cellular GST activity was assayed, using 1-chloro-2,4-dinitrobenzene as a substrate, according to the method of Habig, W. H., and Jakoby, W. B., (1981); supra. Due to spectrophotometric interference at 340 nm, caused by the majority of the NSAIDs, the assays were all performed at 360 nm, without any apparent effect on the rate of the control reaction The results are shown in Table 5.

MRP-specific substrates = experiment: screen for enhancement of toxicity of MRP substrates by NSAIDs; assay type: cell-based; conditions: summary statements
DLKP cells = experiment: Example 5 miniaturised in vitro cell toxicity assay, DLKP; assay type: cell-based, human
Protocol: For the monolayer cell lines miniaturised in vitro assays were used to determine drug toxicity. On Day I cells were seeded at 1×10^3 cells/well in a 96-well plate and left to attach overnight. Drug was added on Day 2, and the assay was terminated on Day 7. Cell number was then evaluated by using one of two colorimetric end-point […]: the acid phosphatase assay (Martin, A., and Clynes, M. (1991); In vitro Cell and Development Biology, 27A: 183-184) or the crystal violet dye elution assay (Martin, A., and Clynes, M. (1993); Cytotechnology, 11:49-58). All assays were performed in triplicate.

MRP pump = molecular target: T1, MRP pump (Homo sapiens, UniProt P33527); experiment: ATP-dependent transport of [3H]LTC4 into inside-out plasma membrane vesicles from HL60ADR cells; assay type: biochemical; conditions: for MRP-pump inhibitory activity: conclusion from Table 4
T1 construct: inside-out plasma membrane vesicles prepared from HL60ADR cells; endogenous in cells; host or cells: HL60ADR cells (plasma membrane vesicles)
T1 sequence (P33527 whole entry): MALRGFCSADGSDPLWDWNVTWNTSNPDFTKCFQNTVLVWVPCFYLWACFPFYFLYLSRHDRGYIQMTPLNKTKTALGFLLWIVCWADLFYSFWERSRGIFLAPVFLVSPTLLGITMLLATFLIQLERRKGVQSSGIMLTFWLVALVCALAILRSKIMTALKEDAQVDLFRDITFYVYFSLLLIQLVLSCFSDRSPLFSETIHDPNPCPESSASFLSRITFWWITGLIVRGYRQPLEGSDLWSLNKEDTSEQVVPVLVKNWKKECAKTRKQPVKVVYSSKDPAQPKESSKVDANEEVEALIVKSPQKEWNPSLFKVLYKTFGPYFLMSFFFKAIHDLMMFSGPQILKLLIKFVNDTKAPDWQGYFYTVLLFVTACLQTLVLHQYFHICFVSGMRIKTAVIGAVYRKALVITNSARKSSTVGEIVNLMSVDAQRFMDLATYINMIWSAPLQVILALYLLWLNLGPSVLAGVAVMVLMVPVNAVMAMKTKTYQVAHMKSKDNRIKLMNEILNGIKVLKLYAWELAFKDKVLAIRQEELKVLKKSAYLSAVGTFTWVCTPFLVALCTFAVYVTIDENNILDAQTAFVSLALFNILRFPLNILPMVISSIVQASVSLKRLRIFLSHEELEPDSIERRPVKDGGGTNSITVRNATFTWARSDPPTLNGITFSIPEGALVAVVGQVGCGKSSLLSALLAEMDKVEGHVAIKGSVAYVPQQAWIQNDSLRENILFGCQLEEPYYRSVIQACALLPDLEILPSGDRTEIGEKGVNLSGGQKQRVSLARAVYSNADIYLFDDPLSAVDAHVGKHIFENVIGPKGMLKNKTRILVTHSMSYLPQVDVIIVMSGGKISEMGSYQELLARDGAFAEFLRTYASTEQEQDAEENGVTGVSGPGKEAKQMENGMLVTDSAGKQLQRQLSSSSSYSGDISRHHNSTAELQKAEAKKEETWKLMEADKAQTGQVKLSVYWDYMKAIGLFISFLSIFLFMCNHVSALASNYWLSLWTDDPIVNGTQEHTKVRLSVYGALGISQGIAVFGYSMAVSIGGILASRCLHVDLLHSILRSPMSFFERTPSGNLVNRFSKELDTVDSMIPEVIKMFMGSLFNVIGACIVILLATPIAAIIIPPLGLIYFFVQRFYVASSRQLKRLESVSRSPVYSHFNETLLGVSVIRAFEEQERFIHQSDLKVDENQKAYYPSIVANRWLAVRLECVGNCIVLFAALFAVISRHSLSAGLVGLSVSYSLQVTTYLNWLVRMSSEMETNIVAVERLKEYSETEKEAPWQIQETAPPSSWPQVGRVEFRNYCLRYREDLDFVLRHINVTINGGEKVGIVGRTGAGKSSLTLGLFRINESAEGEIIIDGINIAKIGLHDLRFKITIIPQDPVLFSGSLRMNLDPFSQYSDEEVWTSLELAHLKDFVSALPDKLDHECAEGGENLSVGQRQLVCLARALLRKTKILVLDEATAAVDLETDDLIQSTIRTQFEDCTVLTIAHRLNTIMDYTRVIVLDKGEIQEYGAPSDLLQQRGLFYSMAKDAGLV
Protocol: To determine if the NSAIDs were acting directly on the MRP pump the uptake of [^3H]LTC4 into inside-out plasma membrane vesicles prepared from HL60ADR cells was examined using a rapid filtration procedure (Ishikawa,T., et al. (1994); J. Biol. Chem. 269 (46); 29085-29093). ATP-dependent transport of [^3H]LTC4 into the membrane vesicles was measured by a rapid filtration method using a Millipore sampling manifold. The membrane vesicles were thawed at 37° C. before use and kept on ice. The reaction components consisted of 0.25 M sucrose/10 mM Tris.HCl pH 7.4/1 mM ATP/10 mM MgCl2/10 mM creatine phosphate/ 110 μg/ml creatine kinase and 10 nM [^3H]LTC4, with 50 μg of the inside-out vesicle preparation, in a final volume of 110 μl. This suspension was incubated at 37° C., with gentle mixing, and aliquots, 20 μl, were taken at the indicated points. Those aliquots were diluted in 1 ml of ice-cold incubation buffer before being applied to 0.22 μm Millipore GSWP nitrocellulose filters, pre-soaked in ice-cold incubation buffer, under suction. The filters were subsequently washed with 3 ml ice-cold incubation buffer, and absorbed radioactivity was measured using a scintillation counter (Beckman). In control experiments ATP was replaced with 5μ-AMP to determine the ATP-dependent transport.

DLKP-7 cells = experiment: adriamycin efflux from loaded cells, HPLC; assay type: cell-based
Protocol: DLKP-7 cells were seeded into 75 cm^2 flasks at 0.5×10^6 cells/10 ml ATCC medium. The cells were left for 2 days, the ATCC medium was removed and fresh medium containing adriamycin (0.5 μg/ml) was added. Following a 2 hour incubation this medium was removed, the flasks were washed twice with PBS, 10 ml ATCC medium or ATCC medium containing the test NSAID was added, and the cells were incubated for a further 4 hr. The cells were trypsinised and the pellet was frozen at −20° C. Duplicate flasks for each time point were prepared. The NSAIDs used were indomethacin 10 μg/ml and piroxicam 20 μg/ml.
The amount of adriamycin in the cells was quantified using liquid-liquid extraction and reverse-phase HPLC analysis. The frozen cell pellets were thawed and resuspended in […] of water/100 μl of 33% silver nitrate and mixed for 5 min. 300 μl of methanol, containing 1.5 μg of daunorubicin as an internal standard (IS), and 1.3 ml of acetonitrile were then added and the tubes mixed for a further 5 min. The mixture was transferred to glass tubes and kept at 4° C. for 1 hr. The tubes were then centrifuged at 1000 g for 15 min. to pellet any solid material. 1.1 ml of the supernatant was removed to HPLC autosampler vials (Labquip, Dublin, Ireland). The solvent was evaporated off at room temperature under a stream of nitrogen gas.
The extract was resuspended in 50 μl of mobile phase 1 (MP1): 32 ml of 0.1 M phosphoric acid mixed with 244 ml of ultrapure water, pH: 2.3 (adjusted upwards with a few drops of 1N potassium hydroxide) to which 124 ml of acetonitrile was added and the final mixture was degassed in a sonicating bath for 5 min. The second mobile phase (MP2) consisted of acetonitrile. The resuspended sample (20 μl) was automatically injected into the HPLC system. The HPLC system comprised a Beckman System Gold 507 autosampler, 125 pump and 166 detector. The MP was pumped through a C18 reversed-phase Prodigy 5 μm particle size ODS-3 column (Phenomenex, Macclesfield, England) (dimensions 150×4.6mm) and absorbance was measured at 253 nm. For the first 14 min. of the chromatographic run MP 1 was pumped at 0.5 ml/min. From 14 min. to 20 min. the column was switched to MP 2. At 20 min. the column was switched back to MP 1 and the flow rate increased to 1 ml/min. At 30 min. the flow rate was brought back to 0.5 ml/min. The run continued for a further 5 min. giving a total run time of 35 min. The amount of adriamycin present was quantified by measuring its peak area and the peak area of the IS. The peak area of the adriamycin was divided by the area of the IS peak and the ratio plotted against a concentration series for spiked adriamycin samples.

Structure (SMILES): O=c1[nH]cc(F)c(=O)[nH]1 [5-FU, 5-flurouracil]
% cell survival (DLKP cell line; iv) 5-FU 0.5 μg/ml alone): 66.18 ± 1.4%

Structure (SMILES): COc1ccc2c(c1)c(CC(=O)OCC(=O)O)c(C)n2C(=O)c1ccc(Cl)cc1 [Acemetacin, acemetacin]
% cell survival (A549 cell line; viii) Acemetacin 11.50 μg/ml, alone or + Adriamycin 15 ng/ml): 102.08 ± 8.76%
% cell survival (A549 cell line; viii) Acemetacin 19.20 μg/ml, alone or + Adriamycin 15 ng/ml): 97.30 ± 8.46%
% cell survival (A549 cell line; viii) Acemetacin 37.50 μg/ml, alone or + Adriamycin 15 ng/ml): 85.04 ± 10.13%
% Inhibition of GST ([1]; 0.25 mM): 58%
enhancement of toxicity of MRP substrates (MRP-specific substrates): have been found to enhance the toxicity of MRP-specific substrates

Structure (SMILES): O=C(O)Cc1ccccc1Nc1c(Cl)cccc1Cl [Diclofenac]
% Inhibition of GST ([1]; 0.75 mM): 54%

Structure (SMILES): COc1cccc2c1C(=O)c1c(O)c3c(c(O)c1C2=O)C[C@@](O)(C(=O)CO)C[C@@H]3O[C@H]1C[C@H](N)[C@@H](O)[C@H](C)O1 [Epirubicin, epirubicin]
% cell survival (DLKP cells; Epirubicin 1 ng/ml alone): 69.08 ± 3.6%

Structure (SMILES): O=C(O)CCC(=O)c1ccc(-c2ccccc2)cc1 [Fenbufen]
% Inhibition of GST ([1]; 1 mM): 15.6%

Structure (SMILES): CC(C(=O)O)c1cccc(Oc2ccccc2)c1 (centres unmarked) [Fenoprofen]
% Inhibition of GST ([1]; 1 mM): 22.5%

Structure (SMILES): O=C(O)c1ccccc1Nc1cccc(C(F)(F)F)c1 [Flufenamic Acid]
% Inhibition of GST ([1]; 0.75 mM): 41.2%

Structure (SMILES): CC(C)Cc1ccc(C(C)C(=O)O)cc1 (centres unmarked) [Ibuprofen]
% cell survival (A549 cell line; xvi) Ibuprofen 3.06 μg/ml, alone or + Adriamycin 17 ng/ml): 100.37 ± 7.94%
% cell survival (A549 cell line; xvi) Ibuprofen 7.92 μg/ml, alone or + Adriamycin 17 ng/ml): 96.78 ± 11.43%
% cell survival (A549 cell line; xvi) Ibuprofen 15.72 μg/ml, alone or + Adriamycin 17 ng/ml): 95.58 ± 8.50%
% Inhibition of GST ([1]; 1 mM): 18.5%

Structure (SMILES): CC(C(=O)O)c1cccc(C(=O)c2ccccc2)c1 (centres unmarked) [Ketoprofen]
% Inhibition of GST ([1]; 1 mM): 11.2%

Structure (SMILES): c1ccc([C@H]2CN3CCSC3=N2)cc1 [Levamisole]
% Inhibition of GST ([1]; 1 mM): 0%

Structure (SMILES): Cc1cccc(Nc2ccccc2C(=O)O)c1C [Mefenamic acid, mefenamic acid]
% cell survival (A549 cell line; x) Mefenamic acid 2.30 μg/ml, alone or + Adriamycin 15 ng/ml): 98.49 ± 7.66%
% cell survival (A549 cell line; x) Mefenamic acid 4.00 μg/ml, alone or + Adriamycin 15 ng/ml): 95.38 ± 9.21%
% cell survival (A549 cell line; x) Mefenamic acid 7.90 μg/ml, alone or + Adriamycin 15 ng/ml): 85.23 ± 7.80%

MRP-pump inhibitory activity (MRP pump): do not
Structure (SMILES): COc1ccc2cc([C@H](C)C(=O)O)ccc2c1 [Naproxen]
% Inhibition of GST ([1]; 1 mM): 17%

inhibition at 302 µM (MRP pump; 0.302 mM): 0%
MRP-pump inhibitory activity (MRP pump): do not
Structure (SMILES): CN1C(C(=O)Nc2ccccn2)=C(O)c2ccccc2S1(=O)=O [Piroxicam]
% Adriamycin content at 0 h (DLKP-7 cells; cells loaded with adriamycin 0.5 μg/ml 2 h, indomethacin 10 μg/ml, piroxicam 20 μg/ml, 0 h): 100%
% Adriamycin content at 4 h (DLKP-7 cells; cells loaded with adriamycin 0.5 μg/ml 2 h, indomethacin 10 μg/ml, piroxicam 20 μg/ml, 4 h): 67 ± 10%
level of adriamycin within the treated cells (DLKP-7 cells; during the 4 hours of the experiment): gradually decreased
enhancement of toxicity of MRP substrates (MRP-specific substrates): negative

Structure (SMILES): O.O.O.O=C([O-])[C@H]([O-])[C@@H]([O-])C(=O)[O-].O=C([O-])[C@H]([O-])[C@@H]([O-])C(=O)[O-].[K+].[K+].[Sb+3].[Sb+3] [Potassium Antimonyl Tartrate, Potassium antimonyl tartrate]
% cell survival (DLKP cell line; vii) Potassium Antimonyl Tartrate 1.5 μg/ml alone): 39.98 ± 3.3%

Structure (SMILES): CSc1ccc(/C=C2/C(C)=C(CC(=O)O)c3cc(F)ccc32)cc1 [Sulindac sulfide, sulindac sulfide]
% cell survival (A549 cell line; xii) Sulindac sulfide 1.40 μg/ml, alone or + Adriamycin 15 ng/ml): 105.83 ± 6.50%
% cell survival (A549 cell line; xii) Sulindac sulfide 2.70 μg/ml, alone or + Adriamycin 15 ng/ml): 104.91 ± 5.57%
% cell survival (A549 cell line; xii) Sulindac sulfide 6.00 μg/ml, alone or + Adriamycin 15 ng/ml): 90.19 ± 9.63%

Structure (SMILES): CC1=C(CC(=O)O)c2cc(F)ccc2/C1=C\c1ccc(S(C)(=O)=O)cc1 [Sulindac sulfone, sulindac sulfone]
% cell survival (A549 cell line; xiii) Sulindac sulfone 4.50 μg/ml, alone or + Adriamycin 15 ng/ml): 101.87 ± 10.52%
% cell survival (A549 cell line; xiii) Sulindac sulfone 8.90 μg/ml, alone or + Adriamycin 15 ng/ml): 102.21 ± 8.88%
% cell survival (A549 cell line; xiii) Sulindac sulfone 19.50 μg/ml alone, or (printed 19.50 mg/ml) + Adriamycin 15 ng/ml): 76.77 ± 6.49%

Structure (SMILES): COc1cc([C@@H]2c3cc4c(cc3[C@@H](O[C@@H]3O[C@@H]5CO[C@@H](c6cccs6)O[C@H]5[C@H](O)[C@H]3O)[C@H]3COC(=O)[C@H]23)OCO4)cc(OC)c1O [Teniposide, teniposide]
% cell survival (DLKP cells; Teniposide 6.25 ng/ml alone): 79.79 ± 0.97%

Structure (SMILES): Cc1cc(CC(=O)O)n(C)c1C(=O)c1ccc(Cl)cc1 [Zomepirac, zomepirac]
% cell survival (A549 cell line; xv) Zomepirac 20.70 μg/ml, alone or + Adriamycin 15 ng/ml): 96.79 ± 12.10%
% cell survival (A549 cell line; xv) Zomepirac 38.80 μg/ml, alone or + Adriamycin 15 ng/ml): 94.89 ± 13.91%
% Inhibition of GST ([1]; 0.25 mM): 56%
enhancement of toxicity of MRP substrates (MRP-specific substrates): have been found to enhance the toxicity of MRP-specific substrates

Structure (SMILES): CCc1cccc2c3c([nH]c12)C(CC)(CC(=O)O)OCC3 (centres unmarked) [etodolac]
enhancement of toxicity of MRP substrates (MRP-specific substrates): does not exhibit the enhanced cytotoxicity
